Source: ChEMBL document CHEMBL5346906, “Discovery of novel tranylcypromine-based derivatives as LSD1 inhibitors for gastric cancer treatment” (Eur J Med Chem, 2023)
Calls of active or inactive are those of the source. No cut-off for these calls is given here.

Columns and labels:
[1] = target: Lysine-specific histone demethylase 1A (Homo sapiens, UniProt O60341); assay: Inhibition of LSD1 in human MGC-803 cells assessed as increase in dimethylation of H3K9; format: cell-based; conditions: dose 0-24 µmol/L
MGC-803 = assay: Inhibition of cell migration in human MGC-803 cells assessed as scratch width decrease treated at 2 to 6 micromol/L for 48 hrs measured by transwell assay based crystal violet staining analysis; format: functional; conditions: dose 2-6 µmol/L

inhibition [1]: Dose-Dependent Effect
SMILES: O=C(c1cccc(CN[C@@H]2C[C@H]2c2ccc(F)c(F)c2)c1)N1CCN(c2ccc(Cl)c(Cl)c2)CC1
inhibition (MGC-803): Active
